Source: PubChem BioAssay AID2060604 (Molecular Pharmacology Branch, DTP, NCI, 2025)

Tested on: 379773-124-R-J2-PDC complex spheroids, viability % test/control
Experiment: Anticancer human tumor 379773-124-R-J2-PDC patient-derived endometrial carcinoma cell line growth inhibition [CLK]
Details: for IC50: curve of first compound; for viability, T/C: stronger effect = lower value
In short: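 Multi-cell-type spheroids combined patient-derived tumor cells with HUVEC endothelial cells and human mesenchymal stem cells. Paired agents were dosed in half-log steps down from about clinical Cmax, or from 10 microM where Cmax was unknown.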

[1] = second compound 0.0316 µM, first compound 0.00316 µM
[2] = second compound 0.0316 µM, first compound 0.01 µM
[3] = second compound 0.0316 µM, first compound 0.0316 µM
[4] = second compound 0.0316 µM, first compound 0.1 µM
[5] = second compound 0.0316 µM, first compound 0.316 µM
[6] = second compound 0.0316 µM, first compound 1 µM
[7] = second compound 0.1 µM, first compound 0.00316 µM
[8] = second compound 0.1 µM, first compound 0.01 µM
[9] = second compound 0.1 µM, first compound 0.0316 µM
[10] = second compound 0.1 µM, first compound 0.1 µM
[11] = second compound 0.1 µM, first compound 0.316 µM
[12] = second compound 0.1 µM, first compound 1 µM
[13] = second compound 0.316 µM, first compound 0.00316 µM
[14] = second compound 0.316 µM, first compound 0.01 µM
[15] = second compound 0.316 µM, first compound 0.0316 µM
[16] = second compound 0.316 µM, first compound 0.1 µM
[17] = second compound 0.316 µM, first compound 0.316 µM
[18] = second compound 0.316 µM, first compound 1 µM
[19] = second compound 1 µM, first compound 0.00316 µM
[20] = second compound 1 µM, first compound 0.01 µM
[21] = second compound 1 µM, first compound 0.0316 µM
[22] = second compound 1 µM, first compound 0.1 µM
[23] = second compound 1 µM, first compound 0.316 µM
[24] = second compound 1 µM, first compound 1 µM
[25] = second compound 3.16 µM, first compound 0.00316 µM
[26] = second compound 3.16 µM, first compound 0.01 µM
[27] = second compound 3.16 µM, first compound 0.0316 µM
[28] = second compound 3.16 µM, first compound 0.1 µM
[29] = second compound 3.16 µM, first compound 0.316 µM
[30] = second compound 3.16 µM, first compound 1 µM
[31] = second compound 10 µM, first compound 0.00316 µM
[32] = second compound 10 µM, first compound 0.01 µM
[33] = second compound 10 µM, first compound 0.0316 µM
[34] = second compound 10 µM, first compound 0.1 µM
[35] = second compound 10 µM, first compound 0.316 µM
[36] = second compound 10 µM, first compound 1 µM
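Also: compound exposure lasted seven days before the viability readout.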
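For viability, T/C in this document: 100% = DMSO vehicle control wells.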

CCc1c2c(nc3ccc(O)cc13)-c1cc3c(c(=O)n1C2)COC(=O)[C@]3(O)CC + CN1CCN(c2cc(C(=O)Nc3cc4cc(-c5cnn(C)c5)ccc4cn3)ccn2)CC1
IC50 (second compound 0.0316 µM): < 3.16 nM
IC50 (second compound 0.1 µM): < 3.16 nM
IC50 (second compound 0.316 µM): < 3.16 nM
IC50 (second compound 1 µM): < 3.16 nM
IC50 (second compound 3.16 µM): < 3.16 nM
IC50 (second compound 10 µM): < 3.16 nM
viability, T/C [1]: 14.1%
viability, T/C [2]: 8.12%
viability, T/C [3]: 3.67%
viability, T/C [4]: 2.7%
viability, T/C [5]: 0.99%
viability, T/C [6]: 0.98%
viability, T/C [7]: 10.7%
viability, T/C [8]: 7.87%
viability, T/C [9]: 5.68%
viability, T/C [10]: 1.93%
viability, T/C [11]: 1%
viability, T/C [12]: 0.47%
viability, T/C [13]: 10.6%
viability, T/C [14]: 9.07%
viability, T/C [15]: 3.15%
viability, T/C [16]: 1.65%
viability, T/C [17]: 0.34%
viability, T/C [18]: 0.08%
viability, T/C [19]: 0.11%
viability, T/C [20]: 0.18%
viability, T/C [21]: 0.1%
viability, T/C [22]: 0.34%
viability, T/C [23]: 0.05%
viability, T/C [24]: 0.05%
viability, T/C [25]: 0.07%
viability, T/C [26]: 0.08%
viability, T/C [27]: 0.13%
viability, T/C [28]: 0.73%
viability, T/C [29]: 0.09%
viability, T/C [30]: 0.08%
viability, T/C [31]: 0.45%
viability, T/C [32]: 0.11%
viability, T/C [33]: 0.2%
viability, T/C [34]: 1.89%
viability, T/C [35]: 0.75%
viability, T/C [36]: 0.18%

O=C(c1cc(Cc2n[nH]c(=O)c3ccccc23)ccc1F)N1CCN(C(=O)C2CC2)CC1 + CN1CCN(c2cc(C(=O)Nc3cc4cc(-c5cnn(C)c5)ccc4cn3)ccn2)CC1
IC50 (second compound 0.0316 µM): > 10000 nM
IC50 (second compound 0.1 µM): 6850 nM
IC50 (second compound 0.316 µM): < 31.6 nM
IC50 (second compound 1 µM): < 31.6 nM
IC50 (second compound 3.16 µM): < 31.6 nM
IC50 (second compound 10 µM): < 31.6 nM
viability, T/C [3]: 101%
viability, T/C [4]: 98.7%
viability, T/C [5]: 87.9%
viability, T/C [6]: 89.9%
viability, T/C (second compound 0.0316 µM, first compound 3.16 µM): 78.6%
viability, T/C (second compound 0.0316 µM, first compound 10 µM): 51.7%
viability, T/C [9]: 73.5%
viability, T/C [10]: 76.6%
viability, T/C [11]: 87.8%
viability, T/C [12]: 94.2%
viability, T/C (second compound 0.1 µM, first compound 3.16 µM): 76.6%
viability, T/C (second compound 0.1 µM, first compound 10 µM): 36.9%
viability, T/C [15]: 16.7%
viability, T/C [16]: 22.3%
viability, T/C [17]: 15.1%
viability, T/C [18]: 23.2%
viability, T/C (second compound 0.316 µM, first compound 3.16 µM): 16.8%
viability, T/C (second compound 0.316 µM, first compound 10 µM): 12.3%
viability, T/C [21]: 0.11%
viability, T/C [22]: 1.49%
viability, T/C [23]: 0.2%
viability, T/C [24]: 1.01%
viability, T/C (second compound 1 µM, first compound 3.16 µM): 0.08%
viability, T/C (second compound 1 µM, first compound 10 µM): 1.87%
viability, T/C [27]: 1.24%
viability, T/C [28]: 0.11%
viability, T/C [29]: 1.32%
viability, T/C [30]: 0.09%
viability, T/C (second compound 3.16 µM, first compound 3.16 µM): 0.1%
viability, T/C (second compound 3.16 µM, first compound 10 µM): 0.09%
viability, T/C [33]: 0.19%
viability, T/C [34]: 0.11%
viability, T/C [35]: 0.46%
viability, T/C [36]: 0.66%
viability, T/C (second compound 10 µM, first compound 3.16 µM): 0.18%
viability, T/C (second compound 10 µM, first compound 10 µM): 0.19%

CCN1CCN(Cc2ccc(Nc3ncc(F)c(-c4cc(F)c5nc(C)n(C(C)C)c5c4)n3)nc2)CC1 + CNC(=O)c1ccc(Nc2nc(OC3CCCC3)c3c(-c4ccc5nc(C)oc5c4)c[nH]c3n2)c(OC)c1
IC50 (second compound 0.0316 µM): > 1000 nM
IC50 (second compound 0.1 µM): < 3.16 nM
IC50 (second compound 0.316 µM): < 3.16 nM
IC50 (second compound 1 µM): < 3.16 nM
IC50 (second compound 3.16 µM): < 3.16 nM
IC50 (second compound 10 µM): < 3.16 nM
viability, T/C [1]: 74.5%
viability, T/C [2]: 77.5%
viability, T/C [3]: 75.4%
viability, T/C [4]: 76.6%
viability, T/C [5]: 87.1%
viability, T/C [6]: 81.5%
viability, T/C [7]: 32.6%
viability, T/C [8]: 48.7%
viability, T/C [9]: 40.5%
viability, T/C [10]: 31.1%
viability, T/C [11]: 42.7%
viability, T/C [12]: 37.2%
viability, T/C [13]: 31.9%
viability, T/C [14]: 41.5%
viability, T/C [15]: 40%
viability, T/C [16]: 38%
viability, T/C [17]: 44.6%
viability, T/C [18]: 31.5%
viability, T/C [19]: 43.2%
viability, T/C [20]: 30.3%
viability, T/C [21]: 31.3%
viability, T/C [22]: 30%
viability, T/C [23]: 36%
viability, T/C [24]: 34.1%
viability, T/C [25]: 33.8%
viability, T/C [26]: 31.4%
viability, T/C [27]: 34.2%
viability, T/C [28]: 31.5%
viability, T/C [29]: 44.9%
viability, T/C [30]: 28.5%
viability, T/C [31]: 32.5%
viability, T/C [32]: 24.3%
viability, T/C [33]: 35.7%
viability, T/C [34]: 30.9%
viability, T/C [35]: 37.3%
viability, T/C [36]: 33.2%

C=CC(=O)Nc1cc(Nc2nccc(-c3cn(C)c4ccccc34)n2)c(OC)cc1N(C)CCN(C)C + CN1CCN(c2cc(C(=O)Nc3cc4cc(-c5cnn(C)c5)ccc4cn3)ccn2)CC1
IC50 (second compound 0.0316 µM): > 300 nM
IC50 (second compound 0.1 µM): > 300 nM
IC50 (second compound 0.316 µM): < 0.949 nM
IC50 (second compound 1 µM): < 0.949 nM
IC50 (second compound 3.16 µM): < 0.949 nM
IC50 (second compound 10 µM): < 0.949 nM
viability, T/C (second compound 0.0316 µM, first compound 0.000949 µM): 100%
viability, T/C (second compound 0.0316 µM, first compound 0.003 µM): 93.1%
viability, T/C (second compound 0.0316 µM, first compound 0.00949 µM): 99.4%
viability, T/C (second compound 0.0316 µM, first compound 0.03 µM): 84.7%
viability, T/C (second compound 0.0316 µM, first compound 0.0949 µM): 96%
viability, T/C (second compound 0.0316 µM, first compound 0.3 µM): 89.7%
viability, T/C (second compound 0.1 µM, first compound 0.000949 µM): 80.4%
viability, T/C (second compound 0.1 µM, first compound 0.003 µM): 74%
viability, T/C (second compound 0.1 µM, first compound 0.00949 µM): 102%
viability, T/C (second compound 0.1 µM, first compound 0.03 µM): 84%
viability, T/C (second compound 0.1 µM, first compound 0.0949 µM): 76.2%
viability, T/C (second compound 0.1 µM, first compound 0.3 µM): 84.6%
viability, T/C (second compound 0.316 µM, first compound 0.000949 µM): 20.2%
viability, T/C (second compound 0.316 µM, first compound 0.003 µM): 31.4%
viability, T/C (second compound 0.316 µM, first compound 0.00949 µM): 34%
viability, T/C (second compound 0.316 µM, first compound 0.03 µM): 34%
viability, T/C (second compound 0.316 µM, first compound 0.0949 µM): 29.6%
viability, T/C (second compound 0.316 µM, first compound 0.3 µM): 20.9%
viability, T/C (second compound 1 µM, first compound 0.000949 µM): 0.28%
viability, T/C (second compound 1 µM, first compound 0.003 µM): 1.12%
viability, T/C (second compound 1 µM, first compound 0.00949 µM): 1.77%
viability, T/C (second compound 1 µM, first compound 0.03 µM): 0.18%
viability, T/C (second compound 1 µM, first compound 0.0949 µM): 1.57%
viability, T/C (second compound 1 µM, first compound 0.3 µM): 0.13%
viability, T/C (second compound 3.16 µM, first compound 0.000949 µM): 1.26%
viability, T/C (second compound 3.16 µM, first compound 0.003 µM): 0.19%
viability, T/C (second compound 3.16 µM, first compound 0.00949 µM): 0.82%
viability, T/C (second compound 3.16 µM, first compound 0.03 µM): 1.59%
viability, T/C (second compound 3.16 µM, first compound 0.0949 µM): 0.11%
viability, T/C (second compound 3.16 µM, first compound 0.3 µM): 0.61%
viability, T/C (second compound 10 µM, first compound 0.000949 µM): 0.28%
viability, T/C (second compound 10 µM, first compound 0.003 µM): 0.45%
viability, T/C (second compound 10 µM, first compound 0.00949 µM): 0.46%
viability, T/C (second compound 10 µM, first compound 0.03 µM): 0.59%
viability, T/C (second compound 10 µM, first compound 0.0949 µM): 0.28%
viability, T/C (second compound 10 µM, first compound 0.3 µM): 0.26%
